Measurements taken from article PMC6271323, “Preparation of Rotenone Derivatives and in Vitro Analysis of Their Antimalarial, Antileishmanial and Selective Cytotoxic Activities” (Molecules, 2014).
Like-named read-outs stand apart in the source and are kept apart here.

How the values were obtained:
[1] = test system: intracellular amastigotes of Leishmania panamensis; assay: Leishmanicidal activity on intracellular amastigotes, flow cytometry (GFP); format: cell-based; details: for Index of Selectivity huMDM: IS = LC50 in huMDM/EC50 for L. panamensis; for EC50: Leishmania panamensis, read-out: Biological activity CE50 Leishmanicidal
Protocol: The leishmanicidal activity was tested on intracellular amastigotes of Leishmania panamensis by flow cytometry following the methodology previously described. Previously, huMDM were infected with promastigotes of L. panamensis transfected with the green fluorescent protein gene (MHOM/CO/87/UA140pIR-GFP) in a proportion of 35:1 (parasites:cells). Plates were incubated at 34 °C, 5% CO2, and after 3 h, cells were washed twice with phosphate buffer (PBS) and incubated again. After 24 h, the infected cells were exposed for 72 h to each concentration of the compounds. Cells were removed using trypsin/EDTA solution and washed twice with PBS by centrifuging 10 min at 1,100 rpm, 4 °C. Then, cells were analyzed in a flow cytometer (Cytomics FC 500MPL, Brea, CA, USA) by reading at 488-nm excitation, 525-nm emissions over an argon laser and counting 10,000 events. The percentage of infected cells was determined by dot plot analysis, while the parasitic load was calculated by the mean fluorescence intensity using histogram analysis. In parallel, cells incubated in medium alone were used as the controls of infection (negative control), and cells exposed to amphotericin B were used as controls of leishmanicidal activity (positive control). Each concentration was assessed in triplicate in at least two independent experiments.
Antileishmanial activity was determined according to the reduction of infected cells and their parasite load obtained for each experimental condition according to the fluorescence median intensity (FMI) emitted by the cytometer and using Equation 3, where the % of parasitemia in unexposed cells corresponds to 100% parasitemia. […] Results are expressed as the median effective concentration (EC50) calculated by probit analysis using the % of inhibition of infection: % parasitemia = (FMI Exposed cells)/(FMI unexposed cells) × 100(3)
(§1) The index of selectivity was calculated with the equation: IS = LC50/EC50.

in vitro [2] = assay: in vitro
Excerpt: U937 cells (CRL-1593^TM) were isolated from human histiocytic lymphoma; Vero cells (CCL-81^TM) were derived from the kidney of the African green monkey, Cercopithecus aethiops; HepG2 (HB-8065^TM) cells were derived from human liver tissue, and CAD-R1 cells, a subclone, were derived from mouse neuronal cells. All cell lines were from American Type Culture Collection (Manassas, VA, USA), except CAD-R1 cells that were kindly donated by D. Chikaraishi and J. Wang (Department of Neurobiology, Duke University Medical Center, Durham, NC, USA). All cell lines were cultured in standard conditions at 37 °C, 5% CO2. U-937 cells were cultivated in RPMI 1640 medium supplemented with 10% fetal bovine serum (FBS) and antibiotics (penicillin 100 U/mL and streptomycin 0.1 mg/mL). Vero, HepG2 and CAD-R1 were cultivated in DMEM medium supplemented with 5% FBS and antibiotics.
(§2) Cytotoxic activity of rotenone and it derivatives on U-937, Vero, HepG2, […] and huMDM cells was evaluated in vitro using the MTT (3-(4,5-dimethylthiazol-2-yl)-2,5-diphenyltetrazolium bromide assay) as described previously. Cells were adjusted to 1 × 10^5 U-937 cells/mL, 2.5 × 10^5 Vero, HepG2 or CAD-R1 cells/mL and 5 × 10^5 huMDM cells/mL in RPMI 1640 supplemented with 10% SBF and the corresponding concentration of each compound. Six serial-based four-dilution concentrations from 200 to 0.19 μg/mL were tested. The amount of formazan produced by the viable cells was registered as optical densities (OD) obtained in an ELISA reader (Bio-Rad) at 570 nm. […] Additionally, hemolytic activity on huRBCs was assessed by the osmotic lysis method. In brief, O positive (O+) huRBCs were adjusted at 3% hematocrit saline solution and incubated in the presence of each compound (six serial four-fold dilutions from 200 to 0.19 µg/mL) at 37 °C. After 2 h, hemoglobin concentration in the supernatant was measured according to the OD obtained in an ELISA reader plate (Bio-Rad) at 570 nm. Cells exposed to saline solution with Triton X-100 were used as positive (lyses) controls, while unexposed cells were used as negative (viability) controls. Each compound and each concentration were assessed in triplicate in at least two separate experiments.
(§3) The percentage of viability (%V) was calculated using Equation 1, where the optical density (OD) of unexposed cells (negative control) corresponds to 100% of viability. In turn, mortality percentage corresponds to 100%–% viability: % Viability = (OD Exposed cells)/(OD Control cells) × 100(1)

in vitro [3] = details: human
Protocol: Primary cultures of human monocyte-derived macrophages (huMDMs) and human red blood cells (huRBCs) obtained from healthy donors after signing the informed consent were also used. The huMDM were obtained from peripheral mononuclear cells isolated by Ficoll-Hypaque 1077 gradient centrifugation. huMDMs were suspended at 3 × 10^5 cells/mL in RPMI 1640 medium supplemented with 10% autologous serum. One mL of suspension was dispensed into each well of 24-well chamber slides and incubated at 37 °C, 5% of CO2 for 72 h, according to a previously described methodology. On the other hand, huRBCs were obtained from sodium citrate anticoagulated whole blood. After centrifugation at 1,500 rpm for 10 min, the RBCs were recovered and suspended in RPMI 1640 medium at 50% hematocrit and stored at 4 °C until use.
as §2, §3

[4] = test system: Plasmodium falciparum (chloroquine sensitive 3D7 strain); assay: microbe, parasite or virus in culture; format: cell-based; details: for Index of Selectivity huRBC: IS = LC50 in huRBC/EC50 in P. falciparum; for EC50: read-out: Biological activity CE50 Antiplasmodial
Protocol: The effect of compounds on the growth of the parasites was assessed by quantification of the parasite DNA stained with ethidium bromide (EtBr). Briefly, unsynchronized cultures of P. falciparum were adjusted to a 1.5%–2% parasitemia and 5% hematocrit in RPMI medium supplemented with 10% human serum. Then, 500 µL of parasites and 500 µL of each concentration of compound were placed in each well of 24-well plates. Plates were incubated for 72 h at 37 °C in a N2 (90%), CO2 (5%) and O2 (5%) atmosphere. […] After 72 h of exposure, DNA from parasites was extracted and purified using a lysis solution containing proteinase K. Each compound and each concentration were assessed in triplicate in at least two separate experiments.
Results are expressed as the median effective concentration (EC50) calculated by probit analysis using the % of inhibition: % parasite growth = (FAU Exposed parasites)/(FAU unexposed parasites) × 100(2)
as §1

[5] = L. panamensis intracellular amastigotes in huMDM, 72 h exposure, ± SD, n = 6 replicates
[6] = African green monkey (Cercopithecus aethiops)
[7] = Plasmodium falciparum, 3D7, 72 h, total forms of P. falciparum 3D7, unsynchronized culture, 72 h, ± SD, n = 6 replicates
[8] = total forms of P. falciparum 3D7, unsynchronized culture, 72 h, ± SD, n = 6 replicates

## C[C@@H]1[C@H](O)[C@@H](C)/C=C/C=C/C=C/C=C/C=C/C=C/C=C/[C@H](O[C@@H]2O[C@H](C)[C@@H](O)[C@H](N)[C@@H]2O)C[C@@H]2O[C@](O)(C[C@@H](O)C[C@@H](O)[C@H](O)CC[C@@H](O)C[C@@H](O)CC(=O)O[C@H]1C)C[C@H](O)[C@H]2C(=O)O [Amphotericin B, reference compound]
[1]
  Index of Selectivity huMDM: 143.0
[1]; [5]
  EC50: 0.8 ± 0.2 µM
In vitro [2]; [6]
  CC50: 15.6 ± 0.4 µM
In vitro [2]; mouse
  CC50: 54.5 ± 0.3 µM

## C=C(C)[C@H]1Cc2c(ccc3c2O[C@@H]2COc4cc(OC)c(OC)cc4[C@@H]2C3O)O1 (stereo partly drawn) [Compound 3, 2R,6aR,12aS-8,9-Dimethoxy-2-(prop-1-en-2-yl)-1,2,6,6a,12,12a-hexahydrochromeno[3,4-b]furo[2,3-h]chromen-6-ol]
[1]
  Index of Selectivity huMDM: <3.9
[1]; [5]
  EC50: > 130 µM
In vitro [3]
  CC50: > 523 µM
In vitro [2]; [6]
  CC50: 284 ± 23.6 µM
In vitro [2]; mouse
  CC50: 17 ± 3.4 µM
[4]
  Index of Selectivity huRBC: >9.6
[4]; [7]
  EC50: < 50 µM
[4]; [8]
  EC50: 53.9 ± 2.4 µM

## C=C(C)[C@H]1Cc2c(ccc3c2O[C@@H]2COc4cc(OC)c(OC)cc4[C@@H]2C3=O)O1 [Compound 1, rotenone]
[1]
  Index of Selectivity huMDM: 3.1
[1]; 72 h
  EC50: 127 ± 17.3 µM
[1]; antileishmanial activity, L. panamensis
  activity against intracellular amastigotes (in words): inactive
In vitro [3]
  CC50 at 2 h: > 508 µM
In vitro [2]; [6]
  CC50: > 508 µM
In vitro [2]; mouse
  CC50: 10.2 µM
[4]; listed as 1 (Rotenone)
  Index of Selectivity huRBC: >26.1
[4]; Plasmodium falciparum, 3D7, 72 h
  EC50: 19 ± 8.6 µM

## COc1cc2c(cc1OC)C1Cc3ccc4c(c3O[C@@H]1CO2)C[C@H](C(C)C)O4 (stereo partly drawn) [Compound 7, 2R,6aS,12aS-2-Isopropyl-8,9-dimethoxy-1,2,6,6a,12,12a-hexahydrochromeno-[3,4-b]furo[2,3-h]-chromene]
[1]
  Index of Selectivity huMDM: <4.0
[1]; [5]
  EC50: > 119 µM
In vitro [3]
  CC50: > 476 µM
In vitro [2]; [6]
  CC50: > 476 µM
In vitro [2]; mouse
  CC50: 1.67 ± 0.9 µM
[4]
  Index of Selectivity huRBC: 8.7
[4]; [7]
  EC50: < 50 µM
[4]; [8]
  EC50: 47.4 ± 0.2 µM

## CCN(CC)CCCC(C)Nc1ccnc2cc(Cl)ccc12 (stereo not drawn) [Chloroquine, reference compound]
[4]; [7]
  EC50: 0.06 ± 0.03 µM

## COc1cc2c(cc1OC)[C@@H]1C(=O)c3ccc4c(c3O[C@@H]1CO2)C[C@H](C1(C)CO1)O4 (stereo partly drawn) [Compound 2, 6aS,12aS-8,9-Dimethoxy-2-(2-methyloxiran-2-yl)-1,2,12,12a-tetrahydrochromeno[3,4-b]furo[2,3-h]-chromen-6(6aH)-one]
[1]
  Index of Selectivity huMDM: <3.6
[1]; [5]
  EC50: > 126 µM
In vitro [3]
  CC50: > 505 µM
In vitro [2]; [6]
  CC50: 81.3 ± 16.9 µM
In vitro [2]; mouse
  CC50: 29 ± 3 µM
[4]
  Index of Selectivity huRBC: >12.1
[4]; [7]
  EC50: < 50 µM
[4]; [8]
  EC50: 41.7 ± 12.6 µM

## COc1cccc2c1C(=O)c1c(O)c3c(c(O)c1C2=O)C[C@@](O)(C(=O)CO)C[C@@H]3O[C@H]1C[C@H](N)[C@H](O)[C@H](C)O1 [Doxorubicin, reference compound]
In vitro [2]; [6]
  CC50: 9.36 ± 2.2 µM
In vitro [2]; mouse
  CC50: 2.6 ± 0.7 µM
